Data reported in patent publication US9604935B2, “Deuterated phenyl amino pyrimidine compound and pharmaceutical composition containing the same” (Suzhou Zelgen Biopharmaceuticals Co., Ltd., priority 2013, dated 2017).
Where two headings read alike, the source gives them in different places.

Assay: Pharmacokinetic evaluation in rats
Type: in vivo
Conditions: male, Sprague-Dawley, rat, plasma, po, 3 mg/kg, 3 mg/kg by gavage
Description: 12 male Sprague-Dawley rats, 7-8 weeks old, of approximately 200 g body weight, were divided into three groups, four in each group.
Rats were feed with standard feed, and were given water, and were started to fast 16 hours before the test. The drug was dissolved in PEG400 and dimethylsulfoxide. Orbital blood collection was conducted, and the blood collection time is 0.25 hour, 0.5 hour, 1 hour, 2 hour, 4 hour, 6 hour, 8 hour, 12 hour, 24 hour, 36 hour and 48 hour after administration.
After inhalation of ether, the rats were shortly anesthesiaed; 300 μL of blood were collected from orbit into a test tube. There were 30 μL of 1% heparin saline solutions in the test tube. Before use, test tubes were dried overnight at 60° C. After the blood sample was collected in the subsequent time point, rats were anesthetized with ether and sacrificed.
After blood sampling, the tube was gently inverted at least 5 times immediately to ensure adequate mixing, and was placed on ice. Blood samples were 5000 rpm centrifuged at 4° C. for 5 minutes to separate the plasma and red blood cells. 100 μL of plasma was pipetted into a clean plastic centrifuge tube, and the name of compounds and the time point were indicated. Plasma was stored in −80° C. before use for the analysis. The concentration of the compound of the invention in plasma was determined with LC-MS/MS. The pharmacokinetic parameters were calculated based on the blood drug concentration of each animal at different time points.

**Q.** Which AUC(0-t) (group G1 (Table 1), mean±SD) does the source give for `N#CCNC(=O)c1ccc(-c2ccnc(Nc3ccc(N4CCOCC4)cc3)n2)cc1` [example 9, N-(cyanomethyl)-4-(2-(4-morpholinophenylamino)pyrimidin-4-yl)benzamide, reference compound] here?
**A.** 1.62 ± 0.932 µg·h/mL

**Q.** What about the Cmax (group G1 (Table 1), mean±SD) of the same molecule?
**A.** 0.245 ± 0.14 µg/mL

**Q.** What about the AUC(0-t) (group G1, Mean of 4 rats) of the same molecule?
**A.** 1.62 µg·h/mL

**Q.** What about the Cmax (group G1, Mean of 4 rats) of the same molecule?
**A.** 0.245 µg/mL

**Q.** And the Tmax (group G1, Mean of 4 rats)?
**A.** 2.56 h

**Q.** What about the AUC(0-inf) (group G1, Mean of 4 rats, read-out: AUCINF_obs) of the same molecule?
**A.** 1.65 µg·h/mL

**Q.** What about the AUC(0-t) (group G1, rat 1) of the same molecule?
**A.** 2.29 µg·h/mL

**Q.** What about the Cmax (group G1, rat 1) of the same molecule?
**A.** 0.368 µg/mL

**Q.** What about the Tmax (group G1, rat 1) of the same molecule?
**A.** 0.25 h

**Q.** And the AUC(0-inf) (group G1, rat 1, read-out: AUCINF_obs)?
**A.** 2.3 µg·h/mL

**Q.** And the AUC(0-t) (group G1, rat 2)?
**A.** 0.443 µg·h/mL

**Q.** What about the Cmax (group G1, rat 2) of the same molecule?
**A.** 0.0794 µg/mL

**Q.** And the Tmax (group G1, rat 2)?
**A.** 4 h

**Q.** What about the AUC(0-inf) (group G1, rat 2, read-out: AUCINF_obs) of the same molecule?
**A.** 0.48 µg·h/mL

**Q.** What about the AUC(0-t) (group G1, rat 3) of the same molecule?
**A.** 2.44 µg·h/mL

**Q.** And the Cmax (group G1, rat 3)?
**A.** 0.354 µg/mL

**Q.** What about the Tmax (group G1, rat 3) of the same molecule?
**A.** 4 h

**Q.** What about the AUC(0-inf) (group G1, rat 3, read-out: AUCINF_obs) of the same molecule?
**A.** 2.51 µg·h/mL

**Q.** What about the AUC(0-t) (group G1, rat 4) of the same molecule?
**A.** 1.32 µg·h/mL

**Q.** And the Cmax (group G1, rat 4)?
**A.** 0.18 µg/mL

**Q.** What about the Tmax (group G1, rat 4) of the same molecule?
**A.** 2 h

**Q.** And the AUC(0-inf) (group G1, rat 4, read-out: AUCINF_obs)?
**A.** 1.33 µg·h/mL

**Q.** And the AUC(0-t) (group G2 (Table 2), mean±SD)?
**A.** 3.21 ± 0.744 µg·h/mL

**Q.** And the Cmax (group G2 (Table 2), mean±SD)?
**A.** 0.589 ± 0.19 µg/mL

**Q.** And the AUC(0-t) (group G2, Mean of 4 rats)?
**A.** 3.21 µg·h/mL

**Q.** What about the Cmax (group G2, Mean of 4 rats) of the same molecule?
**A.** 0.589 µg/mL

**Q.** What about the Tmax (group G2, Mean of 4 rats) of the same molecule?
**A.** 3.5 h

**Q.** What about the AUC(0-inf) (group G2, Mean of 4 rats, read-out: AUCINF_obs) of the same molecule?
**A.** 3.24 µg·h/mL

**Q.** And the AUC(0-t) (group G2, rat 5)?
**A.** 4.08 µg·h/mL

**Q.** And the Cmax (group G2, rat 5)?
**A.** 0.858 µg/mL

**Q.** And the Tmax (group G2, rat 5)?
**A.** 2 h

**Q.** And the AUC(0-inf) (group G2, rat 5, read-out: AUCINF_obs)?
**A.** 4.11 µg·h/mL

**Q.** What about the AUC(0-t) (group G2, rat 6) of the same molecule?
**A.** 3.32 µg·h/mL

**Q.** And the Cmax (group G2, rat 6)?
**A.** 0.567 µg/mL

**Q.** What about the Tmax (group G2, rat 6) of the same molecule?
**A.** 4 h

**Q.** And the AUC(0-inf) (group G2, rat 6, read-out: AUCINF_obs)?
**A.** 3.34 µg·h/mL

**Q.** And the AUC(0-t) (group G2, rat 7)?
**A.** 3.18 µg·h/mL

**Q.** What about the Cmax (group G2, rat 7) of the same molecule?
**A.** 0.514 µg/mL

**Q.** What about the Tmax (group G2, rat 7) of the same molecule?
**A.** 4 h

**Q.** And the AUC(0-inf) (group G2, rat 7, read-out: AUCINF_obs)?
**A.** 3.21 µg·h/mL

**Q.** What about the AUC(0-t) (group G2, rat 8) of the same molecule?
**A.** 2.27 µg·h/mL

**Q.** And the Cmax (group G2, rat 8)?
**A.** 0.415 µg/mL

**Q.** And the Tmax (group G2, rat 8)?
**A.** 4 h

**Q.** What about the AUC(0-inf) (group G2, rat 8, read-out: AUCINF_obs) of the same molecule?
**A.** 2.3 µg·h/mL

**Q.** What about the AUC(0-t) (group G3 (Table 3), mean±SD) of the same molecule?
**A.** 2.19 ± 0.814 µg·h/mL

**Q.** What about the Cmax (group G3 (Table 3), mean±SD) of the same molecule?
**A.** 0.365 ± 0.146 µg/mL

**Q.** What about the AUC(0-t) (group G3, Mean of 4 rats) of the same molecule?
**A.** 2.19 µg·h/mL

**Q.** What about the Cmax (group G3, Mean of 4 rats) of the same molecule?
**A.** 0.365 µg/mL

**Q.** And the Tmax (group G3, Mean of 4 rats)?
**A.** 3.5 h

**Q.** And the AUC(0-inf) (group G3, Mean of 4 rats, read-out: AUCINF_obs)?
**A.** 2.24 µg·h/mL

**Q.** What about the AUC(0-t) (group G3, rat 9) of the same molecule?
**A.** 3.42 µg·h/mL

**Q.** And the Cmax (group G3, rat 9)?
**A.** 0.579 µg/mL

**Q.** And the Tmax (group G3, rat 9)?
**A.** 4 h

**Q.** What about the AUC(0-inf) (group G3, rat 9, read-out: AUCINF_obs) of the same molecule?
**A.** 3.48 µg·h/mL

**Q.** And the AUC(0-t) (group G3, rat 10)?
**A.** 1.8 µg·h/mL

**Q.** And the Cmax (group G3, rat 10)?
**A.** 0.336 µg/mL

**Q.** What about the Tmax (group G3, rat 10) of the same molecule?
**A.** 4 h

**Q.** And the AUC(0-inf) (group G3, rat 10, read-out: AUCINF_obs)?
**A.** 1.85 µg·h/mL

**Q.** And the AUC(0-t) (group G3, rat 11)?
**A.** 1.75 µg·h/mL

**Q.** And the Cmax (group G3, rat 11)?
**A.** 0.276 µg/mL

**Q.** What about the Tmax (group G3, rat 11) of the same molecule?
**A.** 2 h

**Q.** What about the AUC(0-inf) (group G3, rat 11, read-out: AUCINF_obs) of the same molecule?
**A.** 1.8 µg·h/mL

**Q.** What about the AUC(0-t) (group G3, rat 12) of the same molecule?
**A.** 1.81 µg·h/mL

**Q.** What about the Cmax (group G3, rat 12) of the same molecule?
**A.** 0.27 µg/mL

**Q.** And the Tmax (group G3, rat 12)?
**A.** 4 h

**Q.** And the AUC(0-inf) (group G3, rat 12, read-out: AUCINF_obs)?
**A.** 1.84 µg·h/mL
